{
  "source": "patent US10322143B2",
  "about": "“Inhibitors of ADAMTS4 or ADAMTS5 for use in preventing or treating cardiac remodeling and chronic heart failure” (Universitetet i Oslo, priority 2013, dated 2019)",
  "key": {"aortic banding rats": {"system": "aortic banding rats", "experiment": "Aortic banding rat model: echocardiography and organ weights after PPS-treatment", "format": "in vivo", "details": "for Aorta / FS (fractional shortening) / Heart wt / IVSd (interventricular septal thickness at diastole) / LAD (left atrial diameter) / LV wt / LVDd (left ventricular diameter at diastole) / LVDs (left ventricular diameter at systole) / Lung wt / PWd (posterior wall thickness at diastole) / RV wt / Tissue Doppler Maximal velocity / Tissue Doppler Minimal velocity / HR (heart rate): PPS 6 mg/kg s.c. every third day, mean ± SEM; for HR (heart rate): in bpm (unit assumed)", "description": "The experimental procedures conformed to the European Convention for the Protection of Vertebrate Animals Used for Experimental and Other Scientific Purposes, and the protocols were approved by the Norwegian Council for Animal Research. Male Wistar rats weighing 160-170 g underwent AB essentially as described previously (Lunde et al. Physiol Genomics 2011. 44(2):162-72). Briefly, the ascending aorta was dissected free through a right hemithoracotomy, and ligated (3-0 silk) against a steel wire. The sham-operated rats (sham) were subjected to the same surgical procedure with a loose suture around the aorta. In all surgical procedures performed, a mixture of 67% N2O, 28% O2, and 4% isoflurane in an anaesthesia chamber was used for preoperative sedation. To maintain anaesthesia preoperatively, a mixture of 69% N2O, 29% O2, and 2% isoflurane was given by the endotracheal tube and the animals were ventilated on a respirator (Zoovent, Triumph Technical Services, Milton Keynes, UK). Buprenorphine was given as postoperative analgesia after AB.\nIn vivo heart function was evaluated using the Vevo2100 system (Visualsonics Inc, Canada) as previously described (Sjaastad et al. J Appl Physiol 2000; 89:1445-54). Thereafter, the heart was excised under deep anaesthesia, washed in saline and blotted dry to remove blood in the cardiac chambers. The heart chambers were separated by rapid dissection, before being snap-frozen in liquid nitrogen and stored at −70° C. until further analyses. For AB rats not receiving PPS- or vehicle treatment, selection into heart failure (ABHF) or hypertrophy (ABHT) groups was based on echocardiographic and postmortem analysis, as follows: Inclusion criteria for ABHF group were increased lung weight (>2.5 g), increased posterior wall diameter in diastole (PWDd) (>2.0 mm) and increased left atrial diameter (>5.0 mm), while criteria for inclusion in the ABHT group were increased PWDd (>2.0 mm), increased left ventricular weight (>0.75 g) and preserved lung weight (<2.0 g).\n(§1) Three days after AB, rats were stratified by the gradient over the stenosis to ensure similar degree of cardiac stress. Two and two stratified rats were randomized to either 6 mg/kg of the sulfated polysaccharide sodium pentosan polysulfate (PPS) (Interfarm AS, Norway) or vehicle (0.9% NaCl) injected subcutaneously every third day. […] Six weeks after AB or sham operation, the rats were examined by echocardiography and postmortem analysis, performed by experienced investigators (IS, JMA) blinded to treatment group."}, "[1]": {"system": "acute ischemia/reperfusion model", "details": "administered during reperfusion; cited from earlier work"}, "ADAMTS4": {"biological_target": "ADAMTS4 (Rattus norvegicus (Rat), UniProt Q9ESP7)", "experiment": "ADAMTS4 protein level in myocardial protein fractions (immunoblotting), aortic banding rats", "format": "in vivo", "details": "AB-rats after PPS-treatment", "protocol": "as §1\nProteins from rat myocardium were extracted as previously described (Didangelos et al. J Biol Chem 2012. 287(23):19341-5). […]\nProtein concentrations were measured using the Micro BCA Protein Assay Kit (Pierce/Thermo Scientific, IL). […]\nMembranes were blocked in 5% non-fat dry-milk (170-6404, BioRad) overnight. […] Primary antibodies used were against ADAMTS4 (PA1-1750, Thermo Pierce Scientific, IL), versican full length (sc-25831, Santa Cruz Biotechnology, CA) and versican fragments displaying the neo-epitope DPEEAE (ab19345, Abcam, Cambrigde, UK) resulting from ADAMTS cleavage by ADAMTS1/4 (Sandy J D et al. J Biol Chem 2001. 276(16):13372-8; Didangelos A et al. supra), and quantified by ImageJ."}, "[2]": {"details": "PPS-treated vs vehicle-treated AB-rats"}, "[3]": {"details": "aortic banding rats, six weeks after AB"}},
  "data": [
    {"substance": "pentosan polysulfate [PPS]", "values": [
      {"measurement": "side effects including haemorrhage", "setting": "aortic banding rats; AB rats, 6 mg/kg s.c. every third day, observed at daily basis", "value": "no side effects"},
      {"measurement": "lung weight compared to vehicle", "setting": "aortic banding rats; PPS-treated AB-rats", "value": "tendency towards lower"},
      {"measurement": "higher fractional shortening compared to vehicle-treated AB-rats", "setting": "aortic banding rats; [2]", "value": 23, "unit": "%"},
      {"measurement": "left ventricular diameter in systole as part of the diameter in vehicle-treated AB-rats", "setting": "aortic banding rats; [2]", "value": "three quarters"},
      {"measurement": "Aorta", "setting": "aortic banding rats; [3]", "value": "2.56 ± 0.03", "unit": "mm"},
      {"measurement": "FS (fractional shortening)", "setting": "aortic banding rats; [3]", "value": "59.2 ± 1.5", "unit": "%"},
      {"measurement": "Heart wt", "setting": "aortic banding rats; [3]", "value": "1.87 ± 0.09", "unit": "g"},
      {"measurement": "IVSd (interventricular septal thickness at diastole)", "setting": "aortic banding rats; [3]", "value": "2.11 ± 0.06", "unit": "mm"},
      {"measurement": "LAD (left atrial diameter)", "setting": "aortic banding rats; [3]", "value": "4.18 ± 0.14", "unit": "mm"},
      {"measurement": "LV wt", "setting": "aortic banding rats; [3]", "value": "0.95 ± 0.07", "unit": "g"},
      {"measurement": "LVDd (left ventricular diameter at diastole)", "setting": "aortic banding rats; [3]", "value": "6.53 ± 0.13", "unit": "mm"},
      {"measurement": "LVDs (left ventricular diameter at systole)", "setting": "aortic banding rats; [3]", "value": "2.67 ± 0.12", "unit": "mm"},
      {"measurement": "Lung wt", "setting": "aortic banding rats; [3]", "value": "1.64 ± 0.08", "unit": "g"},
      {"measurement": "PWd (posterior wall thickness at diastole)", "setting": "aortic banding rats; [3]", "value": "2.13 ± 0.06", "unit": "mm"},
      {"measurement": "RV wt", "setting": "aortic banding rats; [3]", "value": "0.18 ± 0.01", "unit": "g"},
      {"measurement": "Tissue Doppler Maximal velocity", "setting": "aortic banding rats; [3]", "value": "50.70 ± 2.94"},
      {"measurement": "Tissue Doppler Minimal velocity", "setting": "aortic banding rats; [3]", "value": "59.06 ± 3.26"},
      {"measurement": "HR (heart rate)", "setting": "aortic banding rats; [3]", "value": "420 ± 6"},
      {"measurement": "Aorta", "setting": "aortic banding rats; sham-operated rats, six weeks", "value": "2.63 ± 0.04", "unit": "mm"},
      {"measurement": "FS (fractional shortening)", "setting": "aortic banding rats; sham-operated rats, six weeks", "value": "53.6 ± 5.8", "unit": "%"},
      {"measurement": "Heart wt", "setting": "aortic banding rats; sham-operated rats, six weeks", "value": "1.19 ± 0.11", "unit": "g"},
      {"measurement": "IVSd (interventricular septal thickness at diastole)", "setting": "aortic banding rats; sham-operated rats, six weeks", "value": "1.56 ± 0.04", "unit": "mm"},
      {"measurement": "LAD (left atrial diameter)", "setting": "aortic banding rats; sham-operated rats, six weeks", "value": "3.68 ± 0.14", "unit": "mm"},
      {"measurement": "LV wt", "setting": "aortic banding rats; sham-operated rats, six weeks", "value": "0.70 ± 0.03", "unit": "g"},
      {"measurement": "LVDd (left ventricular diameter at diastole)", "setting": "aortic banding rats; sham-operated rats, six weeks", "value": "6.89 ± 0.10", "unit": "mm"},
      {"measurement": "LVDs (left ventricular diameter at systole)", "setting": "aortic banding rats; sham-operated rats, six weeks", "value": "3.20 ± 0.41", "unit": "mm"},
      {"measurement": "Lung wt", "setting": "aortic banding rats; sham-operated rats, six weeks", "value": "1.41 ± 0.03", "unit": "g"},
      {"measurement": "PWd (posterior wall thickness at diastole)", "setting": "aortic banding rats; sham-operated rats, six weeks", "value": "1.68 ± 0.08", "unit": "mm"},
      {"measurement": "RV wt", "setting": "aortic banding rats; sham-operated rats, six weeks", "value": "0.17 ± 0.01", "unit": "g"},
      {"measurement": "Tissue Doppler Maximal velocity", "setting": "aortic banding rats; sham-operated rats, six weeks", "value": "72.9 ± 8.6"},
      {"measurement": "Tissue Doppler Minimal velocity", "setting": "aortic banding rats; sham-operated rats, six weeks", "value": "82.4 ± 6.1"},
      {"measurement": "HR (heart rate)", "setting": "aortic banding rats; sham-operated rats, six weeks", "value": "412 ± 11"},
      {"measurement": "infarction size", "setting": "[1]", "value": "reduce infarction size"},
      {"measurement": "level of ADAMTS4 in the protein fractions", "setting": "ADAMTS4", "value": "not altered"}
    ]}
  ]
}
